Source: CN1063108A, “三氟甲基酮衍生物及其制备方法和用途” (Fujisawa Pharmaceutical Co Ltd, priority 1990, dated 1992)
Numbered stars: 1 amine (or outer) side, 2 acyl side, 3 side chain; on linkers, the order of the positions; unused ones are H or OH. Square brackets hold non-standard residues; d marks the D form. Peptide text beside a SMILES is read from it. * marks the point of attachment. ξ: configuration not given here. 4Abz = Nc1ccc(C(=O)O)cc1; CO = O=C([*:1])[*:2]; ξV = CC(C)C(N)C(=O)O; CF3 = FC(F)(F)*

Assays:
[1] = system: human sputum elastase-induced lung hemorrhage in hamsters; test: Elastase-induced lung hemorrhage (hemoglobin in BAL cells, OD 541 nm); type: in vivo, hamster; conditions: for % inhibition of lung hemorrhage / Hemorrhage (OD541nm): 5 min before elastase; for Hemorrhage (OD541nm): BAL 3 h later; for ED50, inhibition of lung hemorrhage: intratracheal, 5 min pre-dose
[2] = system: PPE-induced emphysema in Golden Syrian hamsters; test: Experimentally induced (porcine pancreatic elastase) emphysema in hamsters, lung mechanics; type: in vivo, hamster; conditions: for Cst (quasi-static lung compliance) / VC (vital capacity): 5 min before PPE 100 μg/site, 3 weeks later
[3] = system: HSE-induced paw edema in C57BL mice; test: Human sputum elastase-induced mouse paw edema; type: in vivo; conditions: for Footpad thickness (difference right-left hind paw): 15 min before HSE 20 μg/site, measured 2 h after HSE
[4] = 1 μg/site intratracheal, listed as 13
[5] = 10 μg/site intratracheal, listed as 13
[6] = 100 μg/site intratracheal, listed as 13
[7] = 1 μg/site intratracheal, listed as 19
[8] = 10 μg/site intratracheal, listed as 19
[9] = 100 μg/site intratracheal, listed as 19

CC(C)C(NC(=O)[C@@H]1CCCN1C(=O)[C@@H](NC(=O)Nc1ccc(C(=O)NCC(=O)O)cc1)C(C)C)C(=O)C(F)(F)F (stereo partly drawn) [实施例23, 3(RS)-[[4-(羧甲基氨基羰基)苯基氨基羰基]-L-缬氨酰基-L-脯氨酰基]氨基-1，1，1-三氟-2-氧代-4-甲基戊烷] ({Gly-4Abz-CO}-Val-Pro-[ξV]-CF3)
% inhibition of lung hemorrhage ([1]; 1 μg/site intratracheal): 16.0% | Hemorrhage (OD541nm) ([1]; 1 μg/site intratracheal): 9.435±0.941 OD541nm | % inhibition of lung hemorrhage ([1]; 10 μg/site intratracheal): 75.6% | Hemorrhage (OD541nm) ([1]; 10 μg/site intratracheal): 3.412±1.31 OD541nm | % inhibition of lung hemorrhage ([1]; 100 μg/site intratracheal): 102.1% | Hemorrhage (OD541nm) ([1]; 100 μg/site intratracheal): 0.7258±0.303 OD541nm | ED50, inhibition of lung hemorrhage [1]: 3.2 μg/位点

CC(C)C(NC(=O)CN(C(=O)[C@@H](NC(=O)c1ccc(C(=O)NCC(=O)[O-])cc1)C(C)C)C1Cc2ccccc2C1)C(=O)C(F)(F)F.[Na+] (stereo partly drawn) [实施例27, 3(RS)-[[4-(羧甲基氨基羰基)苯基羰基]-L-缬氨酰基-N-(2-二氢化茚基)甘氨酰基]氨基-1，1，1-三氟-4-甲基-2-氧代戊烷钠盐]
% inhibition of lung hemorrhage ([1]; 1 μg/site intratracheal): 24.8% | Hemorrhage (OD541nm) ([1]; 1 μg/site intratracheal): 10.68±1.25 OD541nm | % inhibition of lung hemorrhage ([1]; 10 μg/site intratracheal): 66.9% | Hemorrhage (OD541nm) ([1]; 10 μg/site intratracheal): 4.878±0.917 OD541nm | % inhibition of lung hemorrhage ([1]; 100 μg/site intratracheal): 99.8% | Hemorrhage (OD541nm) ([1]; 100 μg/site intratracheal): 0.3451±0.084 OD541nm | ED50, inhibition of lung hemorrhage [1]: 3.7 μg/位点

CC(C)C(NC(=O)[C@@H]1CCCN1C(=O)[C@@H](NC(=O)c1ccc(C(=O)NCC(=O)O)cc1)C(C)C)C(=O)C(F)(F)F (stereo partly drawn) [实施例13, 3(RS)-[[4-(羧基甲基氨基羰基)苯基羰基]-L-缬氨酰基-L-脯氨酰基]氨基-1，1，1-三氟-4-甲基-2-氧代戊烷]
Hemorrhage (OD541nm) [1, 4]: 11.63±1.99 OD541nm | % inhibition of lung hemorrhage [1, 4]: 21.6% | Hemorrhage (OD541nm) [1, 5]: 4.217±1.02 OD541nm | % inhibition of lung hemorrhage [1, 5]: 74.5% | Hemorrhage (OD541nm) [1, 6]: 0.6384±0.222 OD541nm | % inhibition of lung hemorrhage [1, 6]: 100.0% | ED50, inhibition of lung hemorrhage ([1]; listed as 13): 3.0 μg/位点

CC(C)C(NC(=O)[C@@H]1CCCN1C(=O)[C@@H](NC(=O)c1ccc(C(=O)NCC(=O)O)cc1)C(C)C)C(=O)C(F)(F)F (stereo partly drawn) [实施例19, 3(RS)-[[4-(羧甲基氨基羰基)苯基羰基]-L-缬氨酰基-L-脯氨酰基]氨基-1，1，1-三氟-4-甲基-2-氧代戊烷]
Cst, % inhibition ([2]; 1 μg/site intratracheal): 15% | VC, % inhibition ([2]; 1 μg/site intratracheal): 12% | Cst (quasi-static lung compliance) ([2]; 1 μg/site intratracheal): 1.39±0.05 ml/cm H2O | VC (vital capacity) ([2]; 1 μg/site intratracheal): 7.0 ± 0.1 mL | Cst, % inhibition ([2]; 10 μg/site intratracheal): 84% | VC, % inhibition ([2]; 10 μg/site intratracheal): 65% | Cst (quasi-static lung compliance) ([2]; 10 μg/site intratracheal): 0.70±0.04 ml/cm H2O | VC (vital capacity) ([2]; 10 μg/site intratracheal): 5.8 ± 0.1 mL | Cst, % inhibition ([2]; 100 μg/site intratracheal): 100% | VC, % inhibition ([2]; 100 μg/site intratracheal): 97% | Cst (quasi-static lung compliance) ([2]; 100 μg/site intratracheal): 0.53±0.02 ml/cm H2O | VC (vital capacity) ([2]; 100 μg/site intratracheal): 5.0 ± 0.1 mL | Potency compared with prior-art compounds by Cst and VC (in words) ([2]; based on Cst and VC values): 效力优于先有技术化合物A和B | Effect of pretreatment on PPE-induced increase in lung mechanics (in words) ([2]; dose-related, intratracheal pretreatment): 防止了PPE诱发的肺力学增加 | % inhibition of paw edema ([3]; 1 mg/Kg s.c.): 6.4% | Footpad thickness (difference right-left hind paw) ([3]; 1 mg/Kg s.c.): 43.8±5.67 ×10-2mm | % inhibition of paw edema ([3]; 10 mg/Kg s.c.): 20.9% | Footpad thickness (difference right-left hind paw) ([3]; 10 mg/Kg s.c.): 37.0±13.41 ×10-2mm | % inhibition of paw edema ([3]; 100 mg/Kg s.c.): 42.3% | Footpad thickness (difference right-left hind paw) ([3]; 100 mg/Kg s.c.): 27.0±4.66 ×10-2mm | Hemorrhage (OD541nm) [1, 7]: 11.59±1.40 OD541nm | % inhibition of lung hemorrhage [1, 7]: 10.8% | Hemorrhage (OD541nm) [1, 8]: 1.663±0.690 OD541nm | % inhibition of lung hemorrhage [1, 8]: 93.1% | Hemorrhage (OD541nm) [1, 9]: 0.2141±0.020 OD541nm | % inhibition of lung hemorrhage [1, 9]: 105.2% | ED50, inhibition of lung hemorrhage ([1]; listed as 19): 2.4 μg/位点

CC(C)C(NC(=O)CN(C(=O)[C@@H](NC(=O)c1ccc(C(=O)NCCN2CCOCC2)cc1)C(C)C)C1Cc2ccccc2C1)C(=O)C(F)(F)F.Cl (stereo partly drawn) [实施例29, 3(RS)-[[4-[[2-(4-吗啉代)乙基]氨基羰基]苯基羰基]-L-缬氨酰基-N-(2-二氢化茚基)甘氨酰基]氨基-1，1，1-三氟-4-甲基-2-氧代戊烷的盐酸盐]
% inhibition of lung hemorrhage ([1]; 1 μg/site intratracheal): 14.9% | Hemorrhage (OD541nm) ([1]; 1 μg/site intratracheal): 12.05±1.95 OD541nm | % inhibition of lung hemorrhage ([1]; 10 μg/site intratracheal): 43.2% | Hemorrhage (OD541nm) ([1]; 10 μg/site intratracheal): 8.155±1.76 OD541nm | % inhibition of lung hemorrhage ([1]; 100 μg/site intratracheal): 69.4% | Hemorrhage (OD541nm) ([1]; 100 μg/site intratracheal): 4.545±1.49 OD541nm | ED50, inhibition of lung hemorrhage [1]: 17.9 μg/位点

CC(C)C(NC(=O)[C@@H]1CCCN1C(=O)[C@@H](NC(=O)c1ccc(C(=O)NCCN2CCOCC2)cc1)C(C)C)C(=O)C(F)(F)F.Cl (stereo partly drawn) [实施例21, 3(RS)-[[4-[[2-(4-吗啉代)乙基]氨基羰基]苯基羰基]-L-缬氨酰基-L-脯氨酰基]氨基-1，1，1-三氟-4-甲基-2-氧代戊烷盐酸盐]
% inhibition of lung hemorrhage ([1]; 1 μg/site intratracheal): 13.6% | Hemorrhage (OD541nm) ([1]; 1 μg/site intratracheal): 12.76±1.11 OD541nm | % inhibition of lung hemorrhage ([1]; 10 μg/site intratracheal): 66.3% | Hemorrhage (OD541nm) ([1]; 10 μg/site intratracheal): 5.372±2.06 OD541nm | % inhibition of lung hemorrhage ([1]; 100 μg/site intratracheal): 100.0% | Hemorrhage (OD541nm) ([1]; 100 μg/site intratracheal): 0.6476±0.129 OD541nm | ED50, inhibition of lung hemorrhage [1]: 4.5 μg/位点
